Key:
[1] = system: human KRAS G12V mutant-positive pancreatic cancer line PA-TU-8902; assay: Test Example 3: non-anchorage-dependent cell growth inhibition, spheroid 3D culture; type: cell-based; conditions: PaTu 8902, 144 h, PA-TU-8902 spheroid 3D culture, 6 days, CellTiter Glo 2.0
Procedure: Test Example 3: Evaluation of Non-Anchorage-Dependent Cell Growth Inhibitory Effect on Human KRAS G12V Mutant-Positive Pancreatic Cancer Line PA-TU-8902
The non-anchorage-dependent cell growth inhibitory effect of test compounds was evaluated by spheroid 3D cell culture.
PA-TU-8902 cells were seeded on low-cell-adhesive round bottom 384-well plates (PrimeSurface: from Sumitomo Bakelite) at 36 µL/well to give 5×10^2 cells per well. The cell culture was performed under the same conditions as in Test Example 1.
The next day, the test compounds (8 to 10 points having final concentrations in the range of 3 μM to 0.1 nM) and DMSO, which was the solvent for the test compounds, as a negative control were diluted 100-fold with a fresh medium and were added at 4 μL per well. After culturing in the presence of 5% CO2 at 37° C. for 6 days, CellTiter Glo 2.0 (from Promega) was added at 20 μL per well. After stirring with a plate mixer (from FINEPCR) at normal temperature for 1 hour, the luminescent signals were measured with ARVO X3 (from PerkinElmer).
With the signaling value in treatment with DMSO taken as 0% inhibition and with the signaling value in the medium alone without cells taken as 100% inhibition, the 50% inhibitory concentration values (IC50) were calculated by Sigmoid-Emax nonlinear regression analysis. The inhibition rate at 30 nM was calculated for Example No. 17.

RAS G12V = target: T1, RAS G12V (Homo sapiens, UniProt P01116, G12V); assay: Test Example 1: RAS G12V degradation activity by Cell ELISA in PA-TU-8902; type: cell-based; conditions: for DC50: 50% degradation concentration of RAS G12V, PA-TU-8902 cells, 24 hours, Cell ELISA, corrected with β-actin; for Dmax: PaTu 8902, degradation rate at the most active concentration, DMSO = 0%, Example No. 7 at 3 μM = 100%, PA-TU-8902, 24 hours
T1 construct: host or cells: PA-TU-8902 human pancreatic cancer cells
T1 sequence (P01116 1-188 isoform P01116-2 G12V): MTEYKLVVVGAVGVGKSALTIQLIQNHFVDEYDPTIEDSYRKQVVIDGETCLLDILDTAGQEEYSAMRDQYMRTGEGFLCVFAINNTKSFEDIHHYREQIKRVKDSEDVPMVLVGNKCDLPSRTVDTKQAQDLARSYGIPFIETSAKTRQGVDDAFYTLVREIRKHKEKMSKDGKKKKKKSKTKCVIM
Procedure: Test Example 1: Evaluation of RAS G12V Degradation Activity on Human KRAS G12V Mutant-Positive Pancreatic Cancer Line PA-TU-8902
The RAS G12V degradation activity of test compounds was evaluated by measuring the expression levels of RAS G12V by Cell ELISA.
PA-TU-8902 cells (DSMZ, ACC 179) were seeded at 36 μL per well on 384-well plates (from Greiner bio-one) to give 1.5×10^4 cells per well. As for the cell culture conditions, DMEM medium (from Sigma-Aldrich) containing 10% fetal bovine serum (from Cytiva) was used in the presence of 5% CO2 at 37° C.
The next day, the test compounds (10 points having final concentrations in the range of 3 μM to 0.1 nM), the compound of Example No. 7 having a final concentration of 3 μM as a positive control and dimethyl sulfoxide (DMSO), which was the solvent for the test compounds, as a negative control were diluted 100-fold with a fresh medium and were added at 4 μL per well. The cells were cultured for 24 hours.
The next day, the culture supernatant was removed, and 4% paraformaldehyde phosphate buffer (from FUJIFILM Wako Pure Chemical Corporation) was added at 20 μL per well. The plates were allowed to stand for 30 minutes at room temperature to thus immobilize the cells. Then, the supernatant was removed, and 0.1% Triton X-100 (from Amersham Biosciences)-containing Phosphate buffered saline (PBS) was added at 20 μL per well. After allowing to stand at room temperature for 10 minutes, the supernatant was removed. PBS was added at 25 μL per well, and the supernatant was removed to thus wash each well. The washing was performed twice in total. Subsequent washing operations were performed in the same manner. Next, the supernatant was removed, and 0.5% sodium dodecyl sulfate (SDS; from ThermoFisher Scientific)-containing PBS was added at 20 μL per well. After allowing to stand at room temperature for 10 minutes, the supernatant was removed by centrifugation of the plates. After washing with PBS, the supernatant was removed by centrifugation, and blocking solution (PVDF Blocking Reagent for Can Get Signal [from TOYOBO Co., Ltd.]) was added at 20 μL per well. After allowing to stand for 30 minutes at room temperature, the supernatant was removed by centrifugation and a solution obtained by diluting, as primary antibodies, anti-Ras (G12V Mutant Specific) antibody (Ras (G12V Mutant Specific) (D2H12) Rabbit mAb; from Cell Signaling Technology; 500-fold diluted) and […] (Anti-beta Actin antibody; from Abcam; 5,000-fold diluted) with Can Get Signal Solution 2 (from TOYOBO Co., Ltd.) was added at 15 μL per well. The plates were allowed to stand overnight at 4° C.
The next day, the supernatant was removed by centrifugation and washed with PBS. The supernatant was removed by centrifugation, a solution obtained by diluting, as secondary antibodies, anti-rabbit IgG antibody (IRDye 800CW Goat anti-Rabbit IgG; from LI-COR Biosciences) and anti-mouse IgG antibody (IRDye 680RD Donkey anti-Mouse IgG; from LI-COR Biosciences) 1,000-fold with Can Get Signal Solution 2 was added at 15 μL per well. After allowing to stand at room temperature for 1 hour, the supernatant was removed by centrifugation and washed with PBS. After removing the supernatant, the plates were dried with air at room temperature for 2 hours or more, and the 700 nm and 800 nm fluorescent signals were measured with Aerius (from LI-COR Biosciences).
The degradation rate of RAS G12V was calculated with the RAS G12V signaling value at the time of addition of DMSO taken as 0%, which was corrected with the signaling value of β-actin, and with the RAS G12V signaling value at the time of addition of the compound of Example No. 7 at a final concentration of 3 μM taken as 100%. […]

Compound	IC50 [1]	DC50 (RAS G12V)	Dmax (RAS G12V)
CO[C@@H](C)COc1nc(N2CC[C@H]2C(N)=O)c2cc(C3CC3)c(-c3c(C)c(F)cc4[nH]ncc34)c(OCc3ccc(C(=O)N4CCN(Cc5ccc6c(N7CCC(=O)NC7=O)nn(C)c6c5)C[C@@H]4C)cc3)c2n1 (atropisomer, axis not shown) [Example 5, (2S)-1-((7 M)-6-cyclopropyl-8-((4-[(2S)-4-{[3-(2,4-dioxo-1,3-diazinan-1-yl)-1-methyl-1H-indazol-6-yl]methyl)-2-methylpiperazine-1-carbonyl]phenyl)methoxy)-7-(6-fluoro-5-methyl-1H-indazol-4-yl)-2-[(2S)-2-methoxypropoxy]quinazolin-4-yl}azetidine-2-carboxyamide]	15 nM	5 nM	97%
Cc1c(F)cc2[nH]ncc2c1-c1c(C2CC2)cc2c(N3CC(C#N)C3)nc(OCC(C)(C)CN(C)C)nc2c1OCc1ccc(C(=O)N2CCN(Cc3ccc4c(N5CCC(=O)NC5=O)nn(C)c4c3)C[C@@H]2C)cc1 (atropisomer, axis not shown) [Example 11]	18 nM	11 nM	88%
CO[C@@H](C)COc1nc(N2CC(C#N)C2)c2cc(C3CC3)c(-c3c(C)c(F)cc4[nH]ncc34)c(OCc3ccc(C(=O)N4CCN(Cc5ccc6c(N7CCC(=O)NC7=O)nn(C)c6c5)CC4)cc3)c2n1 (atropisomer, axis not shown) [Example 12]	33 nM	13 nM	87%
CO[C@@H](C)COc1nc(N2CC(C#N)C2)c2cc(C3CC3)c(-c3c(C)c(F)cc4[nH]ncc34)c(OCc3ccc(C(=O)N4CCN(Cc5ccc6c(N7CCC(=O)NC7=O)nn(C)c6c5)C[C@@H]4C)cc3)c2n1 (atropisomer, axis not shown) [Example 14]	12 nM	4 nM	100%
CO[C@@H](C)COc1nc(N2CC(C#N)C2)c2cc(C3CC3)c(-c3c(C)c(F)cc4[nH]ncc34)c(OCc3ccc(C(=O)N4CC5(CN(Cc6ccc7c(N8CCC(=O)NC8=O)nn(C)c7c6)C5)C4)cc3)c2n1 (atropisomer, axis not shown) [Example 16]	255 nM	162 nM	95%
CO[C@@H](C)COc1cc(OC2CN(C(=O)NCCN(C)C)C2)c2cc(C3CC3)c(-c3c(C)c(F)cc4[nH]ncc34)c(OCc3ccc(C(=O)N4CCN(Cc5ccc6c(N7CCC(=O)NC7=O)nn(C)c6c5)C[C@@H]4C)cc3)c2n1 (atropisomer, axis not shown) [Example 18]	149 nM	65 nM	78%
CO[C@@H](C)COc1nc(N2CC[C@H]2C(N)=O)c2cc(C3CC3)c(-c3c(C)c(F)cc4[nH]ncc34)c(OCc3ccc(CN4CCN(Cc5ccc6c(N7CCC(=O)NC7=O)nn(C)c6c5)CC4=O)cc3)c2n1 (atropisomer, axis not shown) [Example 20, (2S)-1-{(7 M)-6-cyclopropyl-8-({4-[(4-{[3-(2,4-dioxo-1,3-diazinan-1-yl)-1-methyl-1H-indazol-6-yl]methyl)-2-oxopiperazin-1-yl)methyl]phenyl}methoxy)-7-(6-fluoro-5-methyl-1H-indazol-4-yl)-2-[(2S)-2-methoxypropoxy]quinazolin-4-yl)azetidine-2-carboxyamide]	85 nM	29 nM	85%
CO[C@@H](C)COc1nc(N2CC(C#N)C2)c2cc(C3CC3)c(-c3c(C)c(F)cc4[nH]ncc34)c(OCc3ccc(C(=O)N4CCC5(CCN(CCOc6cccc(N7CCC(=O)NC7=O)c6)CC5)CC4)cc3)c2n1 (atropisomer, axis not shown) [Example 22]	5 nM		
CO[C@@H](C)COc1nc(OC2CN(C(=O)NCCN(C)C)C2)c2cc(C3CC3)c(-c3c(C)c(F)cc4[nH]ncc34)c(OCc3ccc(C(=O)N4CCN(Cc5ccc6c(c5)n(C)c(=O)n6C5CCC(=O)NC5=O)C[C@@H]4C)cc3)c2n1 (some centres unmarked) [Example 1]	42 nM	6 nM	77%

The next lines start with the values.

IC50 [1]	DC50 (RAS G12V)	Dmax (RAS G12V)	Compound
55 nM	38 nM	103%	Cc1c(F)cc2[nH]ncc2c1-c1c(C2CC2)cc2c(N3CC[C@H]3C(N)=O)nc(OC[C@@H]3CCN(C)C3)nc2c1OCc1ccc(C(=O)N2CCN(Cc3ccc4c(N5CCC(=O)NC5=O)nn(C)c4c3)C[C@@H]2C)cc1 (atropisomer, axis not shown) [Example 7]
47 nM	6 nM	88%	Cc1c(F)cc2[nH]ncc2c1-c1c(C2CC2)cc2c(N3CCOCC3)nc(OCC(C)(C)CN(C)C)nc2c1OCc1ccc(C(=O)N2CCN(Cc3ccc4c(c3)n(C)c(=O)n4N3CCC(=O)NC3=O)C[C@@H]2C)cc1 (atropisomer, axis not shown) [Example 9]
22 nM	6 nM	88%	Cc1c(F)cc2[nH]ncc2c1-c1c(C2CC2)cc2c(N3CC(C#N)C3)nc(OCC(C)(C)CN(C)C)nc2c1OCc1ccc(C(=O)N2CCN(Cc3ccc4c(c3)n(C)c(=O)n4N3CCC(=O)NC3=O)C[C@@H]2C)cc1 (atropisomer, axis not shown) [Example 10]
55 nM	27 nM	104%	CO[C@@H](C)COc1nc(N2CC(C#N)C2)c2cc(C3CC3)c(-c3c(C)c(F)cc4[nH]ncc34)c(OCc3ccc(C(=O)N4CCC5(CN(Cc6ccc7c(N8CCC(=O)NC8=O)nn(C)c7c6)C5)C4)cc3)c2n1 (atropisomer, axis not shown) [Example 13]
139 nM	92 nM	85%	CO[C@@H](C)COc1nc(N2CC(C#N)C2)c2cc(C3CC3)c(-c3c(C)c(F)cc4[nH]ncc34)c(OCc3ccc(C(=O)N4CC[C@H](CN(C)Cc5ccc6c(N7CCC(=O)NC7=O)nn(C)c6c5)C4)cc3)c2n1 (atropisomer, axis not shown) [Example 15]
68 nM	26 nM	78%	CO[C@@H](C)COc1nc(N2CC[C@H]2C(N)=O)c2cc(C3CC3)c(-c3c(C)c(F)cc4[nH]ncc34)c(OCc3ccc(CN4CCN(Cc5ccc6c(N7CCC(=O)NC7=O)nn(C)c6c5)C[C@@H]4C)cc3)c2n1 (atropisomer, axis not shown) [Example 19]
11 nM			Cc1c(F)cc2[nH]ncc2c1-c1c(C2CC2)cc2c(N3CC(C#N)C3)nc(OC3CCOCC3)nc2c1OCc1ccc(C(=O)N2CCN(Cc3ccc4c(N5CCC(=O)NC5=O)nn(C)c4c3)C[C@@H]2C)cc1 (atropisomer, axis not shown) [Example 21]

— US20260042771A1, “HETEROCYCLIC COMPOUND FOR INDUCING DEGRADATION OF G12V MUTANT KRAS PROTEIN” (Astellas Pharma Inc., priority 2022, published 2026)
